Earlier results as cited in US20070117750A1, “METHOD FOR ENHANCED OCULAR DRUG PENETRATION” (priority 2005, published 2007).

What was measured:
[1] = topical instillation
[2] = topical ocular dose of 225 μg

Compound | peak concentration time, aqueous humor [1] [min] | peak concentration time, iris ciliary/body ([1]; or first time interval that can be measured) [min] | systemic bioavailability [2] [%]
Clc1cccc(Cl)c1N=C1NCCN1 [clonidine] | 15 | 2 | 
CC(C(=O)O)c1ccc(-c2ccccc2)c(F)c1 (stereo not drawn) [flurbiprofen] |  |  | 74
